Reference: publication PMC9436915, “Tetrahedral framework nucleic acids‐based delivery promotes intracellular transfer of healing peptides and accelerates diabetic would healing” (Cell Proliferation, 2022)
Where a SMILES comes first, the peptide text is derived from it.

Experiments:
[1] = test system: HUVEC; assay: Tube formation assay on Matrigel; assay type: cell-based; conditions: inhibitor+p@tFNA group; n = 3
Experimental: (§1) HUVECs under diabetic microenvironment were induced by incubation with 200 μg/ml AGEs (Bioss, Beijing, China) for 24 h. Cells were then treated with peptides or p@FNA (125 nM) for subsequent experiments.
The formation of blood vessel‐like structures in vitro was observed by tube formation assay. Cells were pre‐incubated with AGEs for 24 h and subsequently treated with peptide or p@FNA for another 24 h. Subsequently, 100 μl of HUVEC (1–1.5 × 10^5 cells/ml) were seeded on Matrigel (Corning, NY) in 96‐well plates. Images were taken after 6 h. Statistical analysis of tube formation was performed by Image J.

[2] = test system: VEGFA; assay: Western blotting, VEGFA protein; assay type: cell-based; conditions: inhibitor plus p@tFNA treatment, n = 3
Experimental: as §1
(§2) The expression of β‐actin, VEGFA, MMP‐9, ERK1/2 and p‐ERK1/2 was detected by western blotting. The total protein of the sample was extracted by whole cell lysis method. The target protein was separated by 10% SDS‐PAGE and transferred to PVDF membrane. The bands were blocked in 5% BSA for 1 h and then incubated with primary antibodies against β‐actin (1:5000, PMK058S, BioPM, Wuhan, China), VEGFA (ab214424, Abcam, Cambridge, UK), MMP‐9 (ab76003, Abcam, Cambridge, UK), ERK1/2 (1:1000, CST, #4370, MA) and p‐ERK1/2 (1:2000, CST, #4370, MA) overnight at 4°C. The next day, PVDF membranes were rewarmed and incubated with secondary antibodies for 1 h. Bands were washed three times with TBST. The final exposure was performed in a Bio‐Rad chemiluminometry.

[3] = test system: p-ERK1/2; assay: Western blotting, ERK1/2 phosphorylation; assay type: cell-based; conditions: inhibitor plus p@tFNA treatment, n = 3
Experimental: as §1, §2

[4] = test system: trypsin; assay: Enzyme stability of peptide with trypsin; assay type: in vitro ADME; conditions: 37 °C, during 1.5 h, UV 205 nm
Experimental: As to the enzyme stability of peptide, equal amount of peptide and p@FNA were treated with trypsin and incubated in 37 °C for 1.5, 3, and 6 h. The remaining amount of peptide was measured by UV spectrophotometer (205 nm). As to enzyme stability of tFNA, equal amount of tFNA and p@FNA were treated with DNase I for 1 min. After neutralization, samples were examined by 6%PAGE at 60 V for 80 min.

Structure (SMILES)	Tube formation after ERK1/2 inhibition: branching intervals [1] [fold]	Tube formation after ERK1/2 inhibition: branching length [1] [fold]	Tube formation after ERK1/2 inhibition: junctions [1] [fold]	Tube formation after ERK1/2 inhibition: meshes [1] [fold]	Tube formation after ERK1/2 inhibition: nodes [1] [fold]	Tube formation after ERK1/2 inhibition: total length [1] [fold]	Tube formation after ERK1/2 inhibition: total mesh area [1] [fold]	VEGFA expression after ERK1/2 inhibitor [2] [fold]	p-ERK1/2 expression after ERK1/2 inhibitor [3] [fold]	Stability to trypsin (in words) [4]
Cn1nccc1Nc1nccc(-c2cc3c(s2)C(C)(C)N(CCN2CCOCC2)C3=O)n1 [LY3214996]	0.49	0.25	0.19	0.13	0.20	0.35	0.02	0.59	0.69	
C[C@@H](O)[C@H](NC(=O)[C@H](CCCNC(=N)N)NC(=O)CNC(=O)[C@H](CCC(=O)O)NC(=O)[C@@H](N)CCCNC(=N)N)C(=O)O [peptide] (H-REGRT-OH)										rapid decomposition
